Measurements reported in US20220332845A1, “INHIBITION OF MTHFD1L FOR USE IN HYPERTROPHIC HEART DISEASE AND HEART FAILURE” (GENOME BIOLOGICS UG, priority 2019, published 2022).

Tests used:
[1] = tested on: primary neonatal rat cardiomyocytes (NRC); experiment: Immunofluorescent staining of NRCs: multinucleation and cell size; assay type: cell-based; settings: 10 μM ADP for 3 days
Procedure: Isolation of primary neonatal rat cardiomyocytes (NRC) was performed using the neonatal heart dissociation kit (130-098-373, Miltenyi Biotec) as recommended by the manufacturer. Isolated cells were pre-plated with plating medium (65% DMEM, 16% M199, 10% fetal calf serum (FCS), 5% horse serum (HS), 2% glutamine and 1% penicillin/streptomycin (P/S)) for 1.5 h to deplete of the fibroblasts. NRC were plated on Type-I Collagen-coated (Advanced Biomatrix) 3 cm dishes (Nunc) in plating medium. The plating medium was changed to maintenance medium (88% DMEM, 9% M199, 1% HS, 2% glutamine and 1% P/S) 24 h after isolation of NRCs. Cardiomyocytes were treated with 3,3′,5-Triiodo-L-thyronine (T3, T5516, Sigma Aldrich) for 6 days at a concentration of 15 nM. NRCs were stimulated with exogenous ADP (A2754, Sigma Aldrich) at a concentration of 10 μM for 3 days. NRC were randomly chosen for treatment the day after isolation.
Immunofluorescent stainings were performed as described previously (Krishnan et al. Cell Metab 9, 512-524 (2009)). After fixation of NRCs with 4% paraformaldehyde (PFA)/PBS, the cells were permeabilized and incubated with primary antibodies against sarcomeric α-actinin (A7811, Sigma Aldrich) and phospho-Histone H3 (Ser10) (05-817, Cell Signaling) diluted in 2% (v/v) HS for 1 h at RT. […] Cell size was quantified blinded using the software Image J (version 1.47).

NRCs [2] = experiment: [3H]leucine incorporation assay in NRCs; assay type: cell-based, rat; settings: T3 15 nM for 6 days, scrLNA or miR27b-5p LNAs
Procedure: [^3H]leucine incorporation assay was used to measure de novo protein synthesis as an indirect readout for cell growth (Fukuzawa et al. Hypertension 35, 1191-1196 (2000).). 4×10^5 cells were seeded per 3 cm dish. After 3 days, cells were serum-starved overnight. Next day, cells were cultured in leucine-free medium for 4h, followed by culturing in maintenance medium containing labeled […] (specific activity 30-60 Ci/mmol, ART0233, American Radiolabelled Chemicals) at a concentration of 0.5 μCi/mL for 20 h. The next day, cells were washed with PBS, trypsinized and the radioactivity was measured for 5 min in the liquid scintillation analyzer Tri-Carb 2800TR (Perkin Elmer). Cells were counted blinded with a Neubauer chamber after trypsinization and scintillation counts were normalized to absolute cell number.

NRCs [3] = experiment: ADP/ATP ratio in NRCs; assay type: cell-based, rat; settings: T3 15 nM for 6 days, scrLNA or miR27b-5p LNAs
Procedure: Mitochondria were isolated using the Mitochondria Isolation Kit for Cultured Cells (Abcam). Briefly, 1.2×10^6 NRCs were seeded per 6 cm dish and cells collected by scraping. After a freeze-thaw step to weaken the cell membrane, the cells were resuspended to a protein concentration of 5 mg/mL in Reagent A and incubated for 10 min on ice. The cells were homogenized with 30 strokes in a Dounce Homogenizer and centrifuged at 1000 g for 10 min at 4° C. The pellet was resuspended in the same volume of Reagent B than was used for Reagent A and rupturing and centrifugation was repeated. The supernatants after the two centrifugation steps were combined and centrifuged at 12000 g for 15 min at 4° C. Pellet was resuspended in 80 μL Reagent C supplemented with protease inhibitors and stored at −80° C. Mitochondrial ADP:ATP quantification was performed as recommended by the manufacturer (Abcam). 4×10^5 NRCs were seeded per well in a 3 cm dish and the assay was performed using the EnzyLight ADP/ATP Ratio Assay Kit (ELDT-100, Bioassay Systems) as recommended by the manufacturer. Luminescence was measured on a FLUOstar Omega plate reader (BMG).

Compound | cardiomyocyte hypertrophy by cell size quantification [1] | multinucleation (percentage of multinucleated cells) [1] | hypertrophy ([3H]leucine incorporation) (NRCs [2]) | ADP/ATP (NRCs [3])
Nc1ncnc2c1ncn2[C@@H]1O[C@H](COP(=O)(O)OP(=O)(O)O)[C@@H](O)[C@H]1O [ADP] | cardiomyocyte hypertrophy | sufficiency to induce multinucleation |  | 
N[C@@H](Cc1cc(I)c(Oc2ccc(O)c(I)c2)c(I)c1)C(=O)O [T3, 3,3′,5-Triiodo-L-thyronine] |  |  | highly miR27b-dependent hypertrophy | increase
